# Reference: PubChem BioAssay AID1918934 (Molecular Pharmacology Branch, DTP, NCI, 2023)
# Tested on: 292921-168-R-J2-PDC complex spheroid viability
# Assay: Anticancer human tumor 292921-168-R-J2-PDC patient-derived pancreatic carcinoma cell line growth inhibition
# Settings: for IC50: curve of first compound; for viability, T/C: stronger effect = lower value
# In short: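 Complex spheroids of tumor cells with HUVEC and human MSCs, exposed to iadademstat combined with other agents. Each agent tested in half-log steps from near clinical Cmax (else 10 microM top), DMSO ≤0.25%.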
# 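Also: seven day compound exposure before luminescent viability read.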
# 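For viability, T/C in this document: 100% = DMSO vehicle control wells.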
compound,measurement,setting,value
CC(C)CC(NC(=O)C(Cc1ccccc1)NC(=O)c1cnccn1)B(O)O (stereo not given) + NC1CCC(NC2CC2c2ccccc2)CC1,IC50,second compound 0.1 µM,< 0.316 nM
same,IC50,second compound 0.316 µM,< 0.316 nM
same,IC50,second compound 1 µM,< 0.316 nM
same,IC50,second compound 3.16 µM,< 0.316 nM
same,IC50,second compound 10 µM,< 0.316 nM
same,"viability, T/C","second compound 0.1 µM, first compound 0.000316 µM",16.3%
same,"viability, T/C","second compound 0.1 µM, first compound 0.001 µM",0.63%
same,"viability, T/C","second compound 0.1 µM, first compound 0.00316 µM",0.17%
same,"viability, T/C","second compound 0.1 µM, first compound 0.01 µM",0.16%
same,"viability, T/C","second compound 0.1 µM, first compound 0.0316 µM",0.11%
same,"viability, T/C","second compound 0.1 µM, first compound 0.1 µM",0.14%
same,"viability, T/C","second compound 0.316 µM, first compound 0.000316 µM",15.9%
same,"viability, T/C","second compound 0.316 µM, first compound 0.001 µM",0.67%
same,"viability, T/C","second compound 0.316 µM, first compound 0.00316 µM",0.21%
same,"viability, T/C","second compound 0.316 µM, first compound 0.01 µM",3.23%
same,"viability, T/C","second compound 0.316 µM, first compound 0.0316 µM",0.17%
same,"viability, T/C","second compound 0.316 µM, first compound 0.1 µM",0.19%
same,"viability, T/C","second compound 1 µM, first compound 0.000316 µM",16.1%
same,"viability, T/C","second compound 1 µM, first compound 0.001 µM",0.64%
same,"viability, T/C","second compound 1 µM, first compound 0.00316 µM",0.24%
same,"viability, T/C","second compound 1 µM, first compound 0.01 µM",0.12%
same,"viability, T/C","second compound 1 µM, first compound 0.0316 µM",0.26%
same,"viability, T/C","second compound 1 µM, first compound 0.1 µM",0.25%
same,"viability, T/C","second compound 3.16 µM, first compound 0.000316 µM",13.8%
same,"viability, T/C","second compound 3.16 µM, first compound 0.001 µM",0.62%
same,"viability, T/C","second compound 3.16 µM, first compound 0.00316 µM",0.17%
same,"viability, T/C","second compound 3.16 µM, first compound 0.01 µM",0.1%
same,"viability, T/C","second compound 3.16 µM, first compound 0.0316 µM",0.08%
same,"viability, T/C","second compound 3.16 µM, first compound 0.1 µM",0.16%
same,"viability, T/C","second compound 10 µM, first compound 0.000316 µM",12.2%
same,"viability, T/C","second compound 10 µM, first compound 0.001 µM",0.55%
same,"viability, T/C","second compound 10 µM, first compound 0.00316 µM",0.22%
same,"viability, T/C","second compound 10 µM, first compound 0.01 µM",0.19%
same,"viability, T/C","second compound 10 µM, first compound 0.0316 µM",0.14%
same,"viability, T/C","second compound 10 µM, first compound 0.1 µM",0.47%
CCc1c2c(nc3ccc(O)cc13)-c1cc3c(c(=O)n1C2)COC(=O)[C@]3(O)CC + NC1CCC(NC2CC2c2ccccc2)CC1,IC50,second compound 0.1 µM,< 0.949 nM
same,IC50,second compound 0.316 µM,< 0.949 nM
same,IC50,second compound 1 µM,< 0.949 nM
same,IC50,second compound 3.16 µM,< 0.949 nM
same,IC50,second compound 10 µM,< 0.949 nM
same,"viability, T/C","second compound 0.1 µM, first compound 0.000949 µM",5.27%
same,"viability, T/C","second compound 0.1 µM, first compound 0.003 µM",3.61%
same,"viability, T/C","second compound 0.1 µM, first compound 0.00949 µM",1.77%
same,"viability, T/C","second compound 0.1 µM, first compound 0.03 µM",0.99%
same,"viability, T/C","second compound 0.1 µM, first compound 0.0949 µM",0.98%
same,"viability, T/C","second compound 0.1 µM, first compound 0.3 µM",1.08%
same,"viability, T/C","second compound 0.316 µM, first compound 0.000949 µM",5.76%
same,"viability, T/C","second compound 0.316 µM, first compound 0.003 µM",4.37%
same,"viability, T/C","second compound 0.316 µM, first compound 0.00949 µM",1.62%
same,"viability, T/C","second compound 0.316 µM, first compound 0.03 µM",0.85%
same,"viability, T/C","second compound 0.316 µM, first compound 0.0949 µM",0.86%
same,"viability, T/C","second compound 0.316 µM, first compound 0.3 µM",1.09%
same,"viability, T/C","second compound 1 µM, first compound 0.000949 µM",5.78%
same,"viability, T/C","second compound 1 µM, first compound 0.003 µM",3.94%
same,"viability, T/C","second compound 1 µM, first compound 0.00949 µM",1.33%
same,"viability, T/C","second compound 1 µM, first compound 0.03 µM",0.71%
same,"viability, T/C","second compound 1 µM, first compound 0.0949 µM",0.85%
same,"viability, T/C","second compound 1 µM, first compound 0.3 µM",0.78%
same,"viability, T/C","second compound 3.16 µM, first compound 0.000949 µM",6.37%
same,"viability, T/C","second compound 3.16 µM, first compound 0.003 µM",3.93%
same,"viability, T/C","second compound 3.16 µM, first compound 0.00949 µM",1.39%
same,"viability, T/C","second compound 3.16 µM, first compound 0.03 µM",0.55%
same,"viability, T/C","second compound 3.16 µM, first compound 0.0949 µM",0.97%
same,"viability, T/C","second compound 3.16 µM, first compound 0.3 µM",0.91%
same,"viability, T/C","second compound 10 µM, first compound 0.000949 µM",4.96%
same,"viability, T/C","second compound 10 µM, first compound 0.003 µM",3.66%
same,"viability, T/C","second compound 10 µM, first compound 0.00949 µM",0.99%
same,"viability, T/C","second compound 10 µM, first compound 0.03 µM",0.7%
same,"viability, T/C","second compound 10 µM, first compound 0.0949 µM",0.8%
same,"viability, T/C","second compound 10 µM, first compound 0.3 µM",0.74%
